This passage reports IC50 and MIC results from US10696707B2, “Polyene macrolide derivative” (Shionogi & Co., Ltd., priority 2014, dated 2020).

Common to all, as to assay type: cell-based
Assay [1] concerns red blood cells (5% RBC suspension). The assay can be described thus: Test Example 2-2: in vitro hemolytic activity test (upper limit 200 μmol/L). Conditions: Test Example 2-2, hemolysis method 200 (upper concentration 200 μmol/L), 5% RBC suspension, 37° C., one hour, read-out: hemolysis IC50. The method, then: Nephrotoxic potentials of the compounds of the present invention whose X is —N(R^F)—CO—X^1 and X^1 is the group represented by formula (III) and T is —N(R^a5)— were investigated by in vitro hemolytic activity test under the condition that the upper limit was 200 μmol/L as the required concentration to 50% of hemolysis (IC50).
Defibrinated sterile blood was centrifuged at 700×g for 3 minutes and, and the supernatant was removed for 100% of red blood cells. After the cleaning with physiological saline, the washed blood cells was suspended in the medium (Earle's balanced salt sodium, bicarbonate, 0.1 g/L L-glutamine without phenol red), and was diluted by 5% (5% RBC suspension).
The washed blood was diluted by 5% in water for injection (solution of complete hemolysis), and was used as the indication of optical density for complete hemolysis.
The compounds of the present invention solution in DMSO (several and doubling dilutions starting from 10 mmol/L), DMSO as the negative control, and Amphotericin B as the positive control were used, and each 5 μL of these was added in to a well of V-form 96 well type microplate. Finally, the maximum concentration of the compounds of the present invention solution in DMSO was 200 μmol/L by adding 245 μL of the medium or 5% RBC suspension into the well.
Two hundred fifty μL of the solution of complete hemolysis was added into another well and the microplate was incubated at 37° C. in 5% of CO2 concentration for an hour.
After the incubation, each 100 μL of supernatants in wells was collected by centrifugation of the microplate at 300×g for 5 minutes and was located on a well of flat-form 96 well type microplate. An absorbance of each supernatant was measured at wavelength of 540 nm.
Percent hemolysis was calculated by using the followed equation. The required concentration to 50% of hemolysis (IC50) was calculated based on the percent hemolysis. […] Hemolysis (%)=(CR−VM)×100÷(VL−VR) Where:
CR: Absorbance of 5% RBC suspension incubated with the compounds of the present invention solution in DMSO
VM: Absorbance of medium incubated with the compounds of the present invention solution in DMSO
VL: Absorbance of solution of complete hemolysis
VR: Absorbance of 5% RBC suspension incubated with DMSO
The “>200” in the table means above IC50 value exceeded the upper concentration 200 μmol/L.

Another assay concerns C. albicans ATCC90028. Nature of the assay: Antifungal activity test, MIC by broth microdilution (CLSI M27-A3). Conditions: C. albicans ATCC90028; broth microdilution, 35° C., 24-48 hours, 100% inhibition. An outline of the steps:
(§1)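 CLSI broth microdilution in RPMI 1640 with 2% glucose, 0.165 mol/L MOPS, pH 7.0; two-fold DMSO dilutions. MIC = lowest concentration giving 100% inhibition versus growth control.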

The test system of another assay is A. flavus ATCC204304. The assay can be described thus: Antifungal activity test, MIC by broth microdilution (CLSI M38-A2). Particulars: A. flavus ATCC204304; broth microdilution, 35° C., 24-48 hours, 100% inhibition. An outline of the steps:
as §1

A further assay has as its system A. fumigatus ATCC204305. Described as above. Conditions: A. fumigatus ATCC204305; broth microdilution, 35° C., 24-48 hours, 100% inhibition. An outline of the steps:
as §1

Assay [2] deals with red blood cells (5% RBC suspension). Nature of the assay: Test Example 2-1: in vitro hemolytic activity test (upper limit 50, 80, 100 or 200 μmol/L). Particulars: hemolysis method 50 (upper concentration 50 μmol/L); 5% RBC suspension, 37° C., one hour; read-out: hemolysis IC50. An outline of the steps:
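A 5% suspension of washed red cells in Earle's medium was exposed to doubling dilutions of compound from DMSO, with maxima of 50, 80, 100 or 200 μmol/L final, for 1 h at 37 °C, 5% CO2. Supernatant absorbance at 540 nm was normalised to water-lysed cells. IC50 is the concentration giving 50% hemolysis; ">" values exceed the top concentration.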

In brackets after ≈: the same amount, converted by molar mass.

The IC50 is the concentration at which inhibition is half-maximal. For the compound `C[C@@H]1[C@H](O)[C@@H](C)/C=C/C=C/C=C/C=C/C=C/C=C/C=C/[C@H](O[C@@H]2O[C@H](C)[C@@H](O)[C@H](N)[C@@H]2O)C[C@@H]2O[C@](O)(C[C@@H](O)C[C@@H](O)[C@H](O)CC[C@@H](O)C[C@@H](O)CC(=O)O[C@H]1C)C[C@H](O)[C@H]2NC(=O)NNC(=O)c1ccccn1` [I-44], the IC50 in assay [1] is > 200 µM.

In the case of `COC(=O)NNC(=O)N[C@H]1[C@@H]2C[C@@H](O[C@@H]3O[C@H](C)[C@@H](O)[C@H](N)[C@@H]3O)/C=C/C=C/C=C/C=C/C=C/C=C/C=C/[C@H](C)[C@@H](O)[C@@H](C)[C@H](C)OC(=O)C[C@H](O)C[C@H](O)CC[C@@H](O)[C@H](O)C[C@H](O)C[C@](O)(C[C@@H]1O)O2` [I-47], the IC50 in assay [1] (Erythrocyte, 1 h) is > 200 µM. Same read-out and setting: the value for `C[C@@H]1[C@H](O)[C@@H](C)/C=C/C=C/C=C/C=C/C=C/C=C/C=C/[C@H](O[C@@H]2O[C@H](C)[C@@H](O)[C@H](N)[C@@H]2O)C[C@@H]2O[C@](O)(C[C@@H](O)C[C@@H](O)[C@H](O)CC[C@@H](O)C[C@@H](O)CC(=O)O[C@H]1C)C[C@H](O)[C@H]2NC(=O)NNCCN(C)C` [I-78] was > 200 µM.

Regarding `C[C@@H]1[C@H](O)[C@@H](C)/C=C/C=C/C=C/C=C/C=C/C=C/C=C/[C@H](O[C@@H]2O[C@H](C)[C@@H](O)[C@H](N)[C@@H]2O)C[C@@H]2O[C@](O)(C[C@@H](O)C[C@@H](O)[C@H](O)CC[C@@H](O)C[C@@H](O)CC(=O)O[C@H]1C)C[C@H](O)[C@H]2NC(=O)NNC(=O)CNC(=O)Nc1cccnc1` [I-123], the concentration for half-maximal inhibition (IC50) in assay [1] was > 200 µM.

`C[C@@H]1[C@H](O)[C@@H](C)/C=C/C=C/C=C/C=C/C=C/C=C/C=C/[C@H](O[C@@H]2O[C@H](C)[C@@H](O)[C@H](N)[C@@H]2O)C[C@@H]2O[C@](O)(C[C@@H](O)C[C@@H](O)[C@H](O)CC[C@@H](O)C[C@@H](O)CC(=O)O[C@H]1C)C[C@H](O)[C@H]2NC(=O)NNc1ncccc1C(F)(F)F` [I-124]: the IC50 in assay [1] is > 200 µM. The same measure, in the same setting: with `C[C@@H]1[C@H](O)[C@@H](C)/C=C/C=C/C=C/C=C/C=C/C=C/C=C/[C@H](O[C@@H]2O[C@H](C)[C@@H](O)[C@H](N)[C@@H]2O)C[C@@H]2O[C@](O)(C[C@@H](O)C[C@@H](O)[C@H](O)CC[C@@H](O)C[C@@H](O)CC(=O)O[C@H]1C)C[C@H](O)[C@H]2NC(=O)NNc1ccc(C(F)(F)F)cn1` [I-125] the figure was > 200 µM; with `C[C@@H]1[C@H](O)[C@@H](C)/C=C/C=C/C=C/C=C/C=C/C=C/C=C/[C@H](O[C@@H]2O[C@H](C)[C@@H](O)[C@H](N)[C@@H]2O)C[C@@H]2O[C@](O)(C[C@@H](O)C[C@@H](O)[C@H](O)CC[C@@H](O)C[C@@H](O)CC(=O)O[C@H]1C)C[C@H](O)[C@H]2NC(=O)NNC(=O)c1ccc(N2CCOCC2)nc1` [I-194], > 200 µM. The same measure, in the same setting: the value for `C[C@@H]1[C@H](O)[C@@H](C)/C=C/C=C/C=C/C=C/C=C/C=C/C=C/[C@H](O[C@@H]2O[C@H](C)[C@@H](O)[C@H](N)[C@@H]2O)C[C@@H]2O[C@](O)(C[C@@H](O)C[C@@H](O)[C@H](O)CC[C@@H](O)C[C@@H](O)CC(=O)O[C@H]1C)C[C@H](O)[C@H]2NC(=O)NNC(=O)c1ncccc1N` [I-197] was > 200 µM; that for `C[C@@H]1[C@H](O)[C@@H](C)/C=C/C=C/C=C/C=C/C=C/C=C/C=C/[C@H](O[C@@H]2O[C@H](C)[C@@H](O)[C@H](N)[C@@H]2O)C[C@@H]2O[C@](O)(C[C@@H](O)C[C@@H](O)[C@H](O)CC[C@@H](O)C[C@@H](O)CC(=O)O[C@H]1C)C[C@H](O)[C@H]2NC(=O)NNC(=O)c1cccnc1N` [I-198] was > 200 µM. On to `CCCC(=O)NNC(=O)N[C@H]1[C@@H]2C[C@@H](O[C@@H]3O[C@H](C)[C@@H](O)[C@H](N)[C@@H]3O)/C=C/C=C/C=C/C=C/C=C/C=C/C=C/[C@H](C)[C@@H](O)[C@@H](C)[C@H](C)OC(=O)C[C@H](O)C[C@H](O)CC[C@@H](O)[C@H](O)C[C@H](O)C[C@](O)(C[C@@H]1O)O2` [I-209], for which the IC50 in assay [1] is > 200 µM. Same read-out and setting: with `C[C@@H]1[C@H](O)[C@@H](C)/C=C/C=C/C=C/C=C/C=C/C=C/C=C/[C@H](O[C@@H]2O[C@H](C)[C@@H](O)[C@H](N)[C@@H]2O)C[C@@H]2O[C@](O)(C[C@@H](O)C[C@@H](O)[C@H](O)CC[C@@H](O)C[C@@H](O)CC(=O)O[C@H]1C)C[C@H](O)[C@H]2NC(=O)NNS(=O)(=O)c1c[nH]cn1` [I-214] the figure was > 200 µM; with `CNC(=S)NNC(=O)N[C@H]1[C@@H]2C[C@@H](O[C@@H]3O[C@H](C)[C@@H](O)[C@H](N)[C@@H]3O)/C=C/C=C/C=C/C=C/C=C/C=C/C=C/[C@H](C)[C@@H](O)[C@@H](C)[C@H](C)OC(=O)C[C@H](O)C[C@H](O)CC[C@@H](O)[C@H](O)C[C@H](O)C[C@](O)(C[C@@H]1O)O2` [I-215], > 200 µM. On the same count and under the same terms, with `C[C@@H]1[C@H](O)[C@@H](C)/C=C/C=C/C=C/C=C/C=C/C=C/C=C/[C@H](O[C@@H]2O[C@H](C)[C@@H](O)[C@H](N)[C@@H]2O)C[C@@H]2O[C@](O)(C[C@@H](O)C[C@@H](O)[C@H](O)CC[C@@H](O)C[C@@H](O)CC(=O)O[C@H]1C)C[C@H](O)[C@H]2NC(=O)NNC(=S)Nc1ccccc1` [I-216] the figure was > 200 µM; with `C[C@@H]1[C@H](O)[C@@H](C)/C=C/C=C/C=C/C=C/C=C/C=C/C=C/[C@H](O[C@@H]2O[C@H](C)[C@@H](O)[C@H](N)[C@@H]2O)C[C@@H]2O[C@](O)(C[C@@H](O)C[C@@H](O)[C@H](O)CC[C@@H](O)C[C@@H](O)CC(=O)O[C@H]1C)C[C@H](O)[C@H]2NC(=O)NNC(=S)NCCCN1CCOCC1` [I-217], > 200 µM. Broadly, the MIC is the least concentration at which growth counts as inhibited. Take `C[C@@H]1[C@H](O)[C@@H](C)/C=C/C=C/C=C/C=C/C=C/C=C/C=C/[C@H](O[C@@H]2O[C@H](C)[C@@H](O)[C@H](N)[C@@H]2O)C[C@@H]2O[C@](O)(C[C@@H](O)C[C@@H](O)[C@H](O)CC[C@@H](O)C[C@@H](O)CC(=O)O[C@H]1C)C[C@H](O)[C@H]2NC(=O)NC[C@H](O)CC(=O)O` [I-250]: the figures for the MIC with C. albicans ATCC90028, against A. flavus ATCC204304 and with A. fumigatus ATCC204305 were 0.5 µg/mL (≈ 0.481 µM), 0.5 µg/mL (≈ 0.481 µM) and 1 µg/mL (≈ 0.961 µM), respectively. In addition, the IC50 in assay [2] was > 50 µM. As for `C[C@@H]1[C@H](O)[C@@H](C)/C=C/C=C/C=C/C=C/C=C/C=C/C=C/[C@H](O[C@@H]2O[C@H](C)[C@@H](O)[C@H](N)[C@@H]2O)C[C@@H]2O[C@](O)(C[C@@H](O)C[C@@H](O)[C@H](O)CC[C@@H](O)C[C@@H](O)CC(=O)O[C@H]1C)C[C@H](O)[C@H]2NC(=O)NC[C@H](O)C(=O)O` [I-259], the values for the MIC in the assay with C. albicans ATCC90028, in the assay with A. flavus ATCC204304 and against A. fumigatus ATCC204305 were 0.5 µg/mL (≈ 0.487 µM), 0.5 µg/mL (≈ 0.487 µM) and 1 µg/mL (≈ 0.974 µM), respectively. For the same compound, the IC50 in assay [2] is > 50 µM.

Consider `C[C@@H]1[C@H](O)[C@@H](C)/C=C/C=C/C=C/C=C/C=C/C=C/C=C/[C@H](O[C@@H]2O[C@H](C)[C@@H](O)[C@H](N)[C@@H]2O)C[C@@H]2O[C@](O)(C[C@@H](O)C[C@@H](O)[C@H](O)CC[C@@H](O)C[C@@H](O)CC(=O)O[C@H]1C)C[C@H](O)[C@H]2NC(=O)N1CCC1C(=O)O` (stereo partly drawn) [I-284], for which the figures for the MIC against C. albicans ATCC90028, with A. flavus ATCC204304 and in the assay with A. fumigatus ATCC204305 were 0.5 µg/mL (≈ 0.489 µM), 0.5 µg/mL (≈ 0.489 µM) and 1 µg/mL (≈ 0.978 µM), respectively. In addition, the IC50 in assay [2] was > 50 µM. `C[C@@H]1[C@H](O)[C@@H](C)/C=C/C=C/C=C/C=C/C=C/C=C/C=C/[C@H](O[C@@H]2O[C@H](C)[C@@H](O)[C@H](N)[C@@H]2O)C[C@@H]2O[C@](O)(C[C@@H](O)C[C@@H](O)[C@H](O)CC[C@@H](O)C[C@@H](O)CC(=O)O[C@H]1C)C[C@H](O)[C@H]2NC(=O)NC[C@@H](O)C(=O)O` [I-311]: the MIC with C. albicans ATCC90028, against A. flavus ATCC204304 and in the assay with A. fumigatus ATCC204305 was 0.5 µg/mL (≈ 0.487 µM) each time. Besides, in assay [2], the IC50 was > 50 µM.
